The nature of data set [1]: Phase solubility: association constant with phenytoin. It counts as physicochemical. Conditions: 1:1 complex. The text has this:
Similar results can be seen for progesterone (see Table 3 and FIGS. 5 and 6), phenytoin (see Table 4 and FIGS. 7 and 8), and testosterone (see Table 5 and FIGS. 9 and 10).

Data set [2] can be described thus: Phase solubility: association constant with testosterone. It counts as physicochemical. Conditions: 1:1 complex.
Data set [3] can be described thus: Phase solubility: association constant with digoxin. Conditions: 1:1 complex. Format: physicochemical.
The nature of data set [4]: Plasma urea nitrogen (kidney function). Format: in vivo. Conditions: mice; 24 hrs; n = 4; normal saline control 15.88 ± 1.21. The text has this: Plasma urea nitrogen levels are an indicator of kidney function with higher levels indicating renal damage. […] There is however no statistical difference between our derivatives and the hydroxypropyl derivative.
^(1) SIGMA Urea Nitrogen Procedure No. 640A

A further data set deals with red blood cell. Kind of data set: Hemolysis of red blood cells (membrane disruption). It counts as cell-based. The text has this: The mono substituted derivatives caused about the same amount of membrane disruption as the hydroxypropyl derivative.

For the compound `OC[C@H]1O[C@@H]2O[C@H]3[C@H](O)[C@@H](O)[C@@H](O[C@H]4[C@H](O)[C@@H](O)[C@@H](O[C@H]5[C@H](O)[C@@H](O)[C@@H](O[C@H]6[C@H](O)[C@@H](O)[C@@H](O[C@H]7[C@H](O)[C@@H](O)[C@@H](O[C@H]8[C@H](O)[C@@H](O)[C@@H](O[C@H]1[C@H](O)[C@H]2O)O[C@@H]8CO)O[C@@H]7CO)O[C@@H]6CO)O[C@@H]5CO)O[C@@H]4CO)O[C@@H]3CO` [β-Cyclodextrin, β-cyclodextrin], the “Phenytoin association constant K1:1” value in data set [1] was determined as 1510 M⁻¹. Further, the “Testosterone association constant K1:1” value in data set [2] was 17800 M⁻¹. Also, the “Digoxin association constant K1:1” value in data set [3] turned out to be 28200 M⁻¹. Further, the “Plasma Urea Nitrogen, PUN + S.D.” value in data set [4] was determined as 160.10 ± 26.16 mg/dL. In addition, the “membrane disruption / percent hemolysis (in words)” value in the data set with red blood cell is recorded as “causing the most membrane disruption”.
